Results: patent US20250051319A1 (AUGUSTINE THERAPEUTICS, priority 2021, published 2025)

Molecular target: catalytic domain 2 (CD2) of HDAC6 (Homo sapiens (Human), UniProt Q9UBN7)
Assay: Cellular target engagement assay - NanoBRET
Type: cell-based
Conditions: NanoLuc-HDAC6(CD2) in HEK293T cells, 2 hours, read-out: IC50 (HDAC6(CD2) interaction)
Protocol: NanoBRET target engagement was performed against the catalytic domain 2 (CD2) of HDAC6, with minor modifications of kit manufacturer protocol (Promega). Expression of exogenous NanoLuc-HDAC6(CD2) fusion and in HEK293T was achieved following transient transfection with FuGENE HD Transfection Reagent (Promega). The intracellular target engagement assay on HDAC6(CD2) was performed in a 384-well plate format with 8,000 cells per well and a tracer concentration of 0.125 μM or 0.600 μM for HDAC6(CD2). Compounds (dissolved in 100% DMSO) or DMSO (vehicle) were added either manually by diluting them in culture medium at 8× final assay concentration and then adding 5 μL to assay plate or in an automated way by adding […] compound to 5 μL OptiMEM without phenol red (Gibco) using the Echo650 (Labcyte). Tracer solution was added to the cells before seeding 35 μL cell/tracer mixture in the assay plate. The final reaction volume was 40 μL, final DMSO concentration was 1.4% (manual compound addition) or 1.25% (automated compound addition). Assay plates were incubated at 37° C. in a humidified atmosphere containing 5% C02 for 2 hours. The NanoBRET Nano-glo Substrate/Inhibitor was prepared by diluting NanoBRET Nano-Glo Substrate (1:332) and Extracellular Inhibitor (1:1000) in assay medium (Promega). […] BRET ratios were calculated from acceptor/donor signal ratio (mBRET=acceptor/donor*1000) and normalized for each plate. Percentage inhibition was calculated by setting the mBRET obtained with cells without tracer to 100%, while the mBRET obtained with uninhibited cells with tracer was set to 0%. IC50-values were calculated from the percentage inhibition with the log(inhibitor) vs. response—Variable slope (four parameters) nonlinear regression in GraphPad Prism software.

Sequence of catalytic domain 2 (CD2) of HDAC6 (Q9UBN7 482-800): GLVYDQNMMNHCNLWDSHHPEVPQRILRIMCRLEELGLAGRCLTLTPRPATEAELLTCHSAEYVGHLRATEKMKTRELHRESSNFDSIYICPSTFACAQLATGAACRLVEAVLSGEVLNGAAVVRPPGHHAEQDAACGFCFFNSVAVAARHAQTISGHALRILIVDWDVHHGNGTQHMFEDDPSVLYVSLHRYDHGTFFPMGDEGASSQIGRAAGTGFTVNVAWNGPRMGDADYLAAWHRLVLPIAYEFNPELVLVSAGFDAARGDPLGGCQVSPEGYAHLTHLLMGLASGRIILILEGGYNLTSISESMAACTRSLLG

IC50	Compound
100 to 500 nM	O=C(CO)NCc1ccc(C(=O)CSc2nccc3cccnc23)s1 [Example 165, N-((5-(2-((1,7-naphthyridin-8-yl)thio)acetyl)thiophen-2-yl)methyl)-2-hydroxyacetamide]
100 to 500 nM	CNCC(=O)NCc1ccc(C(=O)CSc2nc(C)nc3ccc(OC)cc23)s1 [Compound 183, N-((5-(2-((6-methoxy-2-methylquinazolin-4-yl)thio)acetyl)thiophen-2-yl)methyl)-2-(methylamino)acetamide]
≤ 100 nM	O=C(CSc1nc(C(F)(F)F)nc2ncccc12)c1ccc(CN2CCC(O)C2=O)s1 (stereo in doubt) [Example 156, (R)-3-hydroxy-1-((5-(2-((2-(trifluoromethyl)pyrido[2,3-d]pyrimidin-4-yl)thio)acetyl)thiophen-2-yl)methyl)pyrrolidin-2-one]
≤ 100 nM	COc1ccc2nc(C)nc(SCC(=O)c3ccc(CNC(=O)[C@H](C)O)s3)c2c1 [Compound 185, (S)-2-hydroxy-N-((5-(2-((6-methoxy-2-methylquinazolin-4-yl)thio)acetyl)thiophen-2-yl)methyl)propanamide]
1000 to 10000 nM	Cn1c(SCC(=O)c2ccc(CNC(=O)CO)s2)nc2ccccc21 [Example 169, 2-hydroxy-N-((5-(2-((1-methyl-1H-benzo[d]imidazol-2-yl)thio)acetyl)thiophen-2-yl)methyl)acetamide]
1000 to 10000 nM	O=C(CO)NCc1ccc(C(=O)CSc2nccn3ccnc23)s1 [Example 176, 2-hydroxy-N-((5-(2-(imidazo[1,2-a]pyrazin-8-ylthio)acetyl)thiophen-2-yl)methyl)acetamide]
1000 to 10000 nM	Cc1ccc2oc(SCC(=O)c3ccc(CNC(=O)CO)s3)nc2c1 [Example 170, 2-hydroxy-N-((5-(2-((5-methylbenzo[d]oxazol-2-yl)thio)acetyl)thiophen-2-yl)methyl)acetamide]
1000 to 10000 nM	O=C(CO)NCc1ccc(C(=O)CSc2nc3cc(Cl)cnc3[nH]2)s1 [Example 166, N-((5-(2-((6-chloro-3H-imidazo[4,5-b]pyridin-2-yl)thio)acetyl)thiophen-2-yl)methyl)-2-hydroxyacetamide]
100 to 500 nM	Cc1nc(SCC(=O)c2ccc(CNC(=O)C(C)(C)C)s2)c2ncccc2n1 [Example 18, N-((5-(2-((2-methylpyrido[3,2-d]pyrimidin-4-yl)thio)acetyl)thiophen-2-yl)methyl)pivalamide]
100 to 500 nM	COc1cnc2nc(C)nc(SCC(=O)c3ccc(CNC(=O)OC(C)(C)C)s3)c2c1 [Example 190, tert-butyl ((5-(2-((6-methoxy-2-methylpyrido[2,3-d]pyrimidin-4-yl)thio)acetyl)thiophen-2-yl)methyl)carbamate]
500 to 1000 nM	CC(=O)NCc1ccc(C(=O)CSc2ncnc3c2cnn3C)s1 [Example 103, N-((5-(2-((1-methyl-1H-pyrazolo[3,4-d]pyrimidin-4-yl)thio)acetyl)thiophen-2-yl)methyl)acetamide]
1000 to 10000 nM	COc1cccc2oc(SCC(=O)c3ccc(CNC(=O)CO)s3)nc12 [Example 168, 2-hydroxy-N-((5-(2-((4-methoxybenzo[d]oxazol-2-yl)thio)acetyl)thiophen-2-yl)methyl)acetamide]
1000 to 10000 nM	O=C(CO)NCc1ccc(C(=O)CSc2nc3c(C(F)(F)F)cccc3o2)s1 [Compound 196, 2-hydroxy-N-((5-(2-((4-(trifluoromethyl)benzo[d]oxazol-2-yl)thio)acetyl)thiophen-2-yl)methyl)acetamide]
100 to 500 nM	O=C(CO)NCc1ccc(C(=O)CSc2nccc3ccncc23)s1 [Example 180, N-((5-(2-((2,7-naphthyridin-1-yl)thio)acetyl)thiophen-2-yl)methyl)-2-hydroxyacetamide]

Further lines, the compound ahead of its results:

Compound	IC50
Cc1nc(SCC(=O)c2ccc(CNC(=O)C3CC3(F)F)s2)c2cc(OC(F)(F)F)ccc2n1 (stereo not shown) [Compound 120, 2,2-difluoro-N-((5-(2-((2-methyl-6-(trifluoromethoxy)quinazolin-4-yl)thio)acetyl)thiophen-2-yl)methyl)cyclopropane-1-carboxamide]	100 to 500 nM
Cc1nc(SCC(=O)c2ccc(CNC(=O)CO)s2)c2cc(N3CCCOCC3)ccc2n1 [Compound 83, 2-hydroxy-N-((5-(2-((2-methyl-6-(1,4-oxazepan-4-yl)quinazolin-4-yl)thio)acetyl)thiophen-2-yl)methyl)acetamide]	≤ 100 nM
COc1ccc2nc(C)nc(SCC(=O)c3ccc(CNC(=O)C4CN(C)C4)s3)c2c1 [Compound 178, N-((5-(2-((6-methoxy-2-methylquinazolin-4-yl)thio)acetyl)thiophen-2-yl)methyl)-1-methylazetidine-3-carboxamide]	≤ 100 nM
CCn1ncc2c(SCC(=O)c3ccc(CNC(=O)CO)s3)nc(C(F)(F)F)nc21 [Compound 136, N-((5-(2-((1-ethyl-6-(trifluoromethyl)-1H-pyrazolo[3,4-d]pyrimidin-4-yl)thio)acetyl)thiophen-2-yl)methyl)-2-hydroxyacetamide]	≤ 100 nM
Cc1nc(SCC(=O)c2ccc(CNC(=O)C3CC3(F)F)s2)c2cccnc2n1 (stereo not shown) [Compound 110, 2,2-difluoro-N-((5-(2-((2-methylpyrido[2,3-d]pyrimidin-4-yl)thio)acetyl)thiophen-2-yl)methyl)cyclopropane-1-carboxamide]	100 to 500 nM
Cc1cc2nc(C(F)(F)F)nc(SCC(=O)c3ccc(CNC(=O)CO)s3)n2n1 [Compound 107, 2-hydroxy-N-((5-(2-((7-methyl-2-(trifluoromethyl)pyrazolo[1,5-a][1,3,5]triazin-4-yl)thio)acetyl)thiophen-2-yl)methyl)acetamide]	100 to 500 nM
Cn1ncc2c(SCC(=O)c3ccc(C4CCN(S(N)(=O)=O)C4)s3)ncnc21 (stereo not shown) [Compound 96, 3-(5-(2-((1-methyl-1H-pyrazolo[3,4-d]pyrimidin-4-yl)thio)acetyl)thiophen-2-yl)pyrrolidine-1-sulfonamide]	500 to 1000 nM
Cn1cc2c(SCC(=O)c3ccc(CNC(=O)C4(O)CC4)s3)nc(C(F)(F)F)nc2n1 [Compound 49, 1-hydroxy-N-((5-(2-((2-methyl-6-(trifluoromethyl)-2H-pyrazolo[3,4-d]pyrimidin-4-yl)thio)acetyl)thiophen-2-yl)methyl)cyclopropane-1-carboxamide]	≤ 100 nM
COc1ccc2nc(C)nc(SCC(=O)c3ccc(CNC(=O)C4CCCO4)s3)c2c1 (stereo not shown) [Compound 171, N-((5-(2-((6-methoxy-2-methylquinazolin-4-yl)thio)acetyl)thiophen-2-yl)methyl)tetrahydrofuran-2-carboxamide]	100 to 500 nM
Cc1nc(SCC(=O)c2ccc(CNC(=O)CO)s2)c2cc(F)ccc2n1 [Compound 67, N-((5-(2-((6-fluoro-2-methylquinazolin-4-yl)thio)acetyl)thiophen-2-yl)methyl)-2-hydroxyacetamide]	100 to 500 nM
Cn1ncc2c(SCC(=O)c3ccc(CNS(=O)(=O)C4CC4)s3)ncnc21 [Compound 89, N-((5-(2-((1-methyl-1H-pyrazolo[3,4-d]pyrimidin-4-yl)thio)acetyl)thiophen-2-yl)methyl)cyclopropanesulfonamide]	1000 to 10000 nM
Cn1cc2c(SCC(=O)c3ccc(CNC(=O)C(O)C(F)(F)F)s3)nc(C(F)(F)F)nc2n1 (stereo not shown) [Compound 46, 3,3,3-trifluoro-2-hydroxy-N-((5-(2-((2-methyl-6-(trifluoromethyl)-2H-pyrazolo[3,4-d]pyrimidin-4-yl)thio)acetyl)thiophen-2-yl)methyl)propanamide]	≤ 100 nM
Cn1ncc2c(SCC(=O)c3ccc(CNC(=O)C(C)(C)C)s3)ncnc21 [Compound 102, N-((5-(2-((1-methyl-1H-pyrazolo[3,4-d]pyrimidin-4-yl)thio)acetyl)thiophen-2-yl)methyl)pivalamide]	100 to 500 nM
COc1cnc2nc(C)nc(SCC(=O)c3ccc(CN(C)C(=O)CO)s3)c2c1 [Compound 162, 2-hydroxy-N-((5-(2-((6-methoxy-2-methylpyrido[2,3-d]pyrimidin-4-yl)thio)acetyl)thiophen-2-yl)methyl)-N-methylacetamide]	100 to 500 nM
Cc1nc(SCC(=O)c2ccc(CNC(=O)CO)s2)c2ccc(F)cc2n1 [Compound 68, N-((5-(2-((7-fluoro-2-methylquinazolin-4-yl)thio)acetyl)thiophen-2-yl)methyl)-2-hydroxyacetamide]	100 to 500 nM
COc1ccc2nc(C)nc(SCC(=O)c3ccc(CNC(=O)C4(O)CC4)s3)c2c1 [Compound 50, 1-hydroxy-N-((5-(2-((6-methoxy-2-methylquinazolin-4-yl)thio)acetyl)thiophen-2-yl)methyl)cyclopropane-1-carboxamide]	100 to 500 nM
Cc1nc(SCC(=O)c2ccc(CNC(=O)CO)s2)c2cc(OC3CC3)ccc2n1 [Compound 77, N-((5-(2-((6-cyclopropoxy-2-methylquinazolin-4-yl)thio)acetyl)thiophen-2-yl)methyl)-2-hydroxyacetamide]	≤ 100 nM
